Results taken from patent US8436006B2, “2-amino-quinazoline derivatives useful as inhibitors of β-secretase (BACE)” (Jansssen Pharmaceutica N.V., priority 2004, dated 2013).

Target: T1, β-secretase (BACE) (Homo sapiens, UniProt P56817)
T1 construct: purchased Panvera
Experiment: BACE FS1% Inhibition Assay (Example 160)
Assay type: biochemical
Method: The following reagents were used in this assay: sodium acetate, PEB8000 (Sigma), DMSO, HEPES, FS1 substrate [[…]], β-secretase (BACE) (Panvera), and 96-well plate (HE microplate, Molecular Devices). […] The FS1-substrate stock solution was prepared in DMSO as a 10 mg/mL solution. The FS1-substrate working solution was prepared by diluting the 10 mg/mL stock solution with substrate assay buffer to a final concentration of 300 μg/mL. The β-secretase (BACE) working solution was prepared by diluting a 0.83 mg/mL BACE stock solution with enzyme assay buffer to a final concentration of 4 μg/mL. Test compounds were dissolved in DMSO to 10 mM. […] The screening procedure for this assay was as follows: 15 μL of BACE working solution was pipetted into each well of a 96-well plate. To each well was the pipetted 2 μL of test compound at the selected concentration. Test compound and BACE were then mixed with a pipettor and incubated for 20 min at room temperature. To each well was then added 10 μL of the FS1 substrate working solution. The plates were then incubated for 1 hour at room temperature. […] The procedure for the blank was as follows. 15 μL of assay buffer was pipetted into each well to be used as a blank control. To each well was then added 2 μL of vehicle and 10 μL of FS1-substrate working solution. The plates were then incubated for 1 hour at room temperature. […] The procedure for the positive control was as follows: 15 μL of BACE working solution was pipetted into each well to be used as a positive control. To each well was then pipetted 2 μL of vehicle. Vehicle and BACE were then mixed with a pipettor and incubated for 20 min at room temperature. To each well was then added 10 μL of the FS1 substrate working solution. The plates were then incubated for 1 hour at room temperature. […] For test compounds, % inhibition was determined at each concentration as follows: [formula]

T1 sequence (P56817 46-501): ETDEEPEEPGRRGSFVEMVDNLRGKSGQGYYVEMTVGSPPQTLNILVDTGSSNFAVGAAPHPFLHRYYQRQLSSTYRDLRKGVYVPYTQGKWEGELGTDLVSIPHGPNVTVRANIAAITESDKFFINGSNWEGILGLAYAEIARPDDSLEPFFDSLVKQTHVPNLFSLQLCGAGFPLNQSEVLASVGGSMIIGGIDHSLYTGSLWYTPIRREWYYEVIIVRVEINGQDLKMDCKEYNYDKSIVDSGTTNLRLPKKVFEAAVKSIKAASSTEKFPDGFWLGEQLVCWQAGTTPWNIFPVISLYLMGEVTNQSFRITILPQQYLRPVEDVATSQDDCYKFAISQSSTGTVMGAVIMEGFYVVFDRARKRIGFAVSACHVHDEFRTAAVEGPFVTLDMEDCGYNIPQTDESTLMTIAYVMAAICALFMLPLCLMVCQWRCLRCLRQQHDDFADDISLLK

Compound	% Inhibition (FS) (0.3 μM test compound)	% Inhibition (FS) (1 μM test compound)	% Inhibition (FS) (3 μM test compound)	% Inhibition (FS) (0.3 μM test compound, 0.3 µM)	% Inhibition (FS) (1 μM test compound, 1 µM)	% Inhibition (FS) (3 μM test compound, 3 µM)
COC(=O)C1CCCC(N(C)C(=O)CCC(C2CCCCC2)N2Cc3cc(Oc4ccccc4)ccc3N=C2N)C1 (mixture of isomers) [Compound 777]	38%	97%	–	–	–	–
CCCCCC(CCC(=O)NC1CCCCC1)N1Cc2cc(Oc3ccccc3)ccc2N=C1N (stereo not drawn) [Compound 149]	32%	71%	111%	–	–	–
NC1=Nc2ccc(Oc3ccccc3)cc2CN1CCNC(=O)C1(c2ccc(Cl)cc2)CCCC1 [Compound 196]	65%	96%	120%	–	–	–
COc1ccc(C(CCC(=O)N(C)C2CCCCC2)N2Cc3cc(Oc4ccccc4)ccc3N=C2N)cc1 (stereo not drawn) [Compound 298]	<30%	75%	110%	–	–	–
CCCC(CCC)C(=O)NCC(C1CCCCC1)N1Cc2cc(Oc3ccccc3)ccc2N=C1N (stereo not drawn) [Compound 302]	<30%	72%	108%	–	–	–
CC(C)[C@H](CNC(=O)C1CCCCC1)N1Cc2cc(Oc3ccccc3)ccc2N=C1N [Compound 561]	114%	118%	125%	–	–	–
CC(C)C(CNC(=O)C12CC3CC(CC(C3)C1)C2)N1Cc2cc(Oc3ccccc3)ccc2N=C1N (stereo not drawn) [Compound 562]	106%	118%	128%	–	–	–
CN(C(=O)CCC(C1CCCCC1)N1Cc2cc(Oc3ccccc3)ccc2N=C1N)C1CCC(O)CC1 (stereo not drawn) [Compound 639]	–	–	–	<30%	<30%	48%
Cc1ccccc1-c1ccc2c(c1)CN(CCNC(=O)CCC(C)C)C(N)=N2 [Compound 661]	68%	98%	–	–	–	–
CCCCC(CC)C(=O)NCCN1Cc2cc(-c3ccccc3C)ccc2N=C1N (stereo not drawn) [Compound 662]	66%	97%	–	–	–	–
NC1=Nc2ccc(-c3ccc4ccccc4c3)cc2CN1CCNC(=O)C1CCC1 [Compound 663]	<30%	<30%	<30%	–	–	–
NC1=Nc2ccc(-c3ccc4ccccc4c3)cc2CN1CCNC(=O)C1CCCC1 [Compound 664]	<30%	<30%	<30%	–	–	–
NC1=Nc2ccc(-c3ccc4ccccc4c3)cc2CN1CCNC(=O)C12CC3CC(CC(C3)C1)C2 [Compound 665]	35%	<30%	<30%	–	–	–
CCCC(=O)NCCN1Cc2cc(-c3ccc4ccccc4c3)ccc2N=C1N [Compound 666]	37%	<30%	<30%	–	–	–
CC(C)(C)C(=O)NCCN1Cc2cc(-c3ccc4ccccc4c3)ccc2N=C1N [Compound 667]	33%	<30%	<30%	–	–	–
CC(C)CCC(=O)NCCN1Cc2cc(-c3ccc4ccccc4c3)ccc2N=C1N [Compound 668]	<30%	<30%	<30%	–	–	–
CCCCC(CC)C(=O)NCCN1Cc2cc(-c3ccc4ccccc4c3)ccc2N=C1N (stereo not drawn) [Compound 669]	<30%	<30%	32%	–	–	–
NC1=Nc2ccc(-c3cnc4ccccc4c3)cc2CN1CCNC(=O)C1CCC1 [Compound 670]	<30%	<30%	44%	–	–	–
NC1=Nc2ccc(-c3cnc4ccccc4c3)cc2CN1CCNC(=O)C1CCCC1 [Compound 671]	<30%	30%	<30%	–	–	–
NC1=Nc2ccc(-c3cnc4ccccc4c3)cc2CN1CCNC(=O)C12CC3CC(CC(C3)C1)C2 [Compound 672]	<30%	<30%	<30%	–	–	–
CCCC(=O)NCCN1Cc2cc(-c3cnc4ccccc4c3)ccc2N=C1N [Compound 673]	34%	<30%	<30%	–	–	–
CC(C)(C)C(=O)NCCN1Cc2cc(-c3cnc4ccccc4c3)ccc2N=C1N [Compound 674]	36%	<30%	41%	–	–	–
CC(C)CCC(=O)NCCN1Cc2cc(-c3cnc4ccccc4c3)ccc2N=C1N [Compound 675]	35%	<30%	<30%	–	–	–

Compound	% Inhibition (FS) (0.3 μM test compound)	% Inhibition (FS) (1 μM test compound)	% Inhibition (FS) (3 μM test compound)	% Inhibition (FS) (0.3 μM test compound, 0.3 µM)	% Inhibition (FS) (1 μM test compound, 1 µM)	% Inhibition (FS) (3 μM test compound, 3 µM)
CCCCC(CC)C(=O)NCCN1Cc2cc(-c3cnc4ccccc4c3)ccc2N=C1N (stereo not drawn) [Compound 676]	33%	<30%	44%	–	–	–
Cc1ccccc1-c1ccc2c(c1)CN(CCNC(=O)CCC(F)(F)F)C(N)=N2 [Compound 678]	51%	88%	99%	–	–	–
Cc1ccccc1-c1ccc2c(c1)CN(CCNC(=O)CC(C)C(F)(F)F)C(N)=N2 (stereo not drawn) [Compound 679]	78%	99%	–	–	–	–
NC1=Nc2ccc(-c3ccccc3F)cc2CN1CCNC(=O)CCC(F)(F)F [Compound 680]	42%	75%	90%	–	–	–
CC(CC(=O)NCCN1Cc2cc(-c3ccccc3F)ccc2N=C1N)C(F)(F)F (stereo not drawn) [Compound 681]	67%	100%	–	–	–	–
NC1=Nc2ccc(-c3ccccc3Cl)cc2CN1CCNC(=O)CCC(F)(F)F [Compound 682]	39%	77%	97%	–	–	–
CC(CC(=O)NCCN1Cc2cc(-c3ccccc3Cl)ccc2N=C1N)C(F)(F)F (stereo not drawn) [Compound 683]	64%	86%	–	–	–	–
NC1=Nc2ccc(-c3ccccc3)cc2CN1CCNC(=O)CCC(F)(F)F [Compound 684]	33%	38%	78%	–	–	–
CC(CC(=O)NCCN1Cc2cc(-c3ccccc3)ccc2N=C1N)C(F)(F)F (stereo not drawn) [Compound 685]	50%	90%	–	–	–	–
NC1=Nc2ccc(-c3ccc4ccccc4c3)cc2CN1CCNC(=O)CCC(F)(F)F [Compound 686]	<30%	73%	80%	–	–	–
NC1=Nc2ccc(-c3ccccc3F)cc2CN1CCNC(=O)C1CCOCC1 [Compound 687]	<30%	50%	87%	–	–	–
NC1=Nc2ccc(-c3ccccc3F)cc2CN1CCNC(=O)C1CCC(C(F)(F)F)CC1 (stereo not drawn) [Compound 688]	<30%	36%	81%	–	–	–
NC1=Nc2ccc(-c3ccccc3Cl)cc2CN1CCNC(=O)C1CCOCC1 [Compound 689]	33%	82%	–	–	–	–
NC1=Nc2ccc(-c3ccccc3Cl)cc2CN1CCNC(=O)C1CCC(C(F)(F)F)CC1 (stereo not drawn) [Compound 690]	<30%	<30%	52%	–	–	–
CC(=O)N1CCC(C(=O)NCCN2Cc3cc(-c4ccccc4Cl)ccc3N=C2N)CC1 [Compound 691]	<30%	<30%	51%	–	–	–
Cc1ccccc1-c1ccc2c(c1)CN(CCNC(=O)C1CCC(C(F)(F)F)CC1)C(N)=N2 (stereo not drawn) [Compound 694]	<30%	<30%	84%	–	–	–
CC(=O)N1CCC(C(=O)NCCN2Cc3cc(-c4ccccc4C)ccc3N=C2N)CC1 [Compound 695]	<30%	<30%	54%	–	–	–
COC1CCCC(C(=O)NCCN2Cc3cc(-c4ccccc4C)ccc3N=C2N)C1 (stereo not drawn) [Compound 696]	<30%	72%	–	–	–	–
COc1ccccc1-c1ccc2c(c1)CN(CCNC(=O)C1CCOCC1)C(N)=N2 [Compound 697]	<30%	<30%	63%	–	–	–
COc1ccccc1-c1ccc2c(c1)CN(CCNC(=O)C1CCC(C(F)(F)F)CC1)C(N)=N2 (stereo not drawn) [Compound 698]	<30%	<30%	64%	–	–	–
COc1cccc(F)c1-c1ccc2c(c1)CN(CCNC(=O)C1CCOCC1)C(N)=N2 [Compound 699]	31%	64%	93%	–	–	–
COc1cccc(F)c1-c1ccc2c(c1)CN(CCNC(=O)C1CCC(C(F)(F)F)CC1)C(N)=N2 (stereo not drawn) [Compound 700]	<30%	36%	85%	–	–	–
NC1=Nc2ccc(-c3ccccc3)cc2CN1CCNC(=O)C1CCC(C(F)(F)F)CC1 (stereo not drawn) [Compound 701]	<30%	<30%	54%	–	–	–
